pIC50: −log10 of the molar value. Several values for one entry are separate records, joined by “and”; a condition that tells them apart may be missing. Identical values can stand only once.
Tested on: 128128-338-R-J1-PDC spheroids, viability % test/control
Experiment: Anticancer human tumor 128128-338-R-J1-PDC patient-derived melanoma cell line growth inhibition [TAK]
Details: spheroids with HUVEC and MSC; for viability, T/C: stronger effect = lower value; active = viability on the fitted dose curve at most 10% of control; inactive = the rest
Description: Combinatorial screen of targeted agents with TAK-243 and ipatasertib in multi-cell type tumor spheroids
A high-throughput screen of multi-cell type tumor spheroids was designed to identify active combinations of targeted small molecules and TAK-243 or ipatasertib. Complex spheroids include a stromal component modeled by human endothelial cells (HUVEC) and fibroblasts modeled by human mesenchymal stem cells (MSCs). The concentration ranges selected for each drug and investigational agent were based upon clinically achievable concentrations if the clinical Cmax of the agent was known.
Compounds. The drugs and investigational agents: TAK-243 (785004), ipatasertib (767898), everolimus (733504), selumetinib (741078), bortezomib (756655), trametinib (758246), ixazomib (758254), vemurafenib (761431), dabrafenib (764134), sapanisertib (764658), alpelisib (765974), and copanlisib (816437), were obtained from the National Cancer Institute (NCI) Developmental Therapeutics Program Chemical Repository. The FDA-approved anticancer drug set is available from the NCI Developmental Therapeutics Program. […] The stock solutions were prepared in dimethyl sulfoxide (DMSO, Sigma-Aldrich, St. Louis, MO, cat. D2650) at 800-fold the tested concentration and stored at -70 degrees C prior to their use. All drugs and investigational agents were tested over a range starting from a high concentration at or near the clinical Cmax and decreasing in half-log increments. If the clinical Cmax for an agent had not been determined, the highest concentration tested was 10 microM.
NCI60 Cell Culture. NCI60 cell lines were obtained from the NCI Developmental Therapeutics Program Tumor Repository. For each lot of cells, the Repository performed Applied Biosystems AmpFLSTR Identifiler testing with PCR amplification to confirm consistency with the published Identifier STR profile for each cell line. Cells were kept in continuous culture for no more than 20 passages. The optimal seeding densities for each of the cell lines at each time point assessed were determined prior to performing the concentration response studies. Briefly, the NCI60 human tumor lines were grown as monolayers in RPMI 1640 medium supplemented with 10% FBS and 2 mmol/L L-glutamine.
An additional 2 lines were from the NCI60 cell line panel including melanomas, MALME-3M and SK-MEL-2. Pooled donor human umbilical vein endothelial cells (HUVEC, Lonza, cat. CC-2519) and human mesenchymal stem cells (hMSC, Lonza, cat. PT-2501) were purchased from Lonza (Walkersville, MD).
PDMR cell lines were grown in complete medium (DC medium): Dulbecco's modified Eagle's medium (DMEM)/F12 supplemented with 5% fetal bovine serum (FBS), 2 mM L-glutamine, 100 U/mL penicillin and 100 µg/ml streptomycin, 0.4 µg/ml hydrocortisone, 10 ng/ml epidermal growth factor (EGF) recombinant human protein, 24 µg/mL adenine, and 0.1 mg/mL primocin. During culture from frozen stock vials, PDMR cells were cultured in the same medium containing 10 µM Y-27632 (see Table 3). The PDCs were cultured in complete DMEM/F12 media without 10 microM Y-27632 dihydrochloride for at least two passages prior to the screen. The pooled donor HUVEC and hMSC were cultured in endothelial cell growth medium 2 (PromoCell, Heidelberg, Germany, cat. C-22011) and mesenchymal stem cell growth medium 2 (PromoCell, cat. C-28009), respectively. For all experiments, HUVEC and hMSC were used at passages </=5.
For the pre-screen, cell seeding densities were determined from a titration spanning the range from 5,000 to 313 cells per well. The mct-spheroids including 60% malignant cells, 25% HUVEC and 15% MSC dispensed as a mixture into U-bottom Ultra-Low Attachment 384-well plates (Corning, NY)
High-throughput Drug Combination Screening.
Prior to their inoculation into 384-well plates, malignant cells, HUVEC, and hMSC were removed from T flasks using TrypLE express (Thermo Fisher Scientific, cat. 12605036) and harvested by centrifugation for 5 min at 233 x g. […]

[1] = curve of first compound, second compound 0.3 µM
[2] = curve of first compound, second compound 0.949 µM
[3] = curve of first compound, second compound 3 µM
[4] = curve of first compound, second compound 9.49 µM
[5] = curve of first compound, second compound 30 µM
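Also: spheroids exposed to compounds for 7 days.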
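For viability, T/C in this document: 100% = DMSO vehicle wells.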

Cn1cnc2c(F)c(Nc3ccc(Br)cc3Cl)c(C(=O)NOCCO)cc21 + CC(C)NCC(C(=O)N1CCN(c2ncnc3c2C(C)CC3O)CC1)c1ccc(Cl)cc1
active: viability, T/C (second compound 0.3 µM, first compound 0.949 µM) 1.29% | viability, T/C (second compound 0.3 µM, first compound 3 µM) 1.54% | viability, T/C (second compound 0.949 µM, first compound 0.3 µM) 3.97% | viability, T/C (second compound 0.949 µM, first compound 0.949 µM) 0.63% | viability, T/C (second compound 0.949 µM, first compound 3 µM) 0.7% | viability, T/C (second compound 3 µM, first compound 0.3 µM) 1.91% | viability, T/C (second compound 3 µM, first compound 0.949 µM) 0.35% | viability, T/C (second compound 3 µM, first compound 3 µM) 0.16% | viability, T/C (second compound 9.49 µM, first compound 0.0949 µM) 10.7% | viability, T/C (second compound 9.49 µM, first compound 0.3 µM) 0.42% | viability, T/C (second compound 9.49 µM, first compound 0.949 µM) 0.35% | viability, T/C (second compound 9.49 µM, first compound 3 µM) 0.17% | viability, T/C (second compound 30 µM, first compound 0.03 µM) 4.78% | viability, T/C (second compound 30 µM, first compound 0.0949 µM) 0.34% | viability, T/C (second compound 30 µM, first compound 0.3 µM) 0.25% | viability, T/C (second compound 30 µM, first compound 0.949 µM) 0.15% | viability, T/C (second compound 30 µM, first compound 3 µM) 0.13%
7.26: pIC50 [3]
7.82: pIC50 [4]
> 8.02: pIC50 [5]
7.04: pIC50 [1]
inactive: viability, T/C (second compound 0.3 µM, first compound 0.00949 µM) 92.9% | viability, T/C (second compound 0.3 µM, first compound 0.03 µM) 83.4% | viability, T/C (second compound 0.3 µM, first compound 0.0949 µM) 48.7% | viability, T/C (second compound 0.3 µM, first compound 0.3 µM) 13.6% | viability, T/C (second compound 0.949 µM, first compound 0.00949 µM) 85.7% | viability, T/C (second compound 0.949 µM, first compound 0.03 µM) 76.6% | viability, T/C (second compound 0.949 µM, first compound 0.0949 µM) 45% | viability, T/C (second compound 3 µM, first compound 0.00949 µM) 77% | viability, T/C (second compound 3 µM, first compound 0.03 µM) 76.2% | viability, T/C (second compound 3 µM, first compound 0.0949 µM) 26.3% | viability, T/C (second compound 9.49 µM, first compound 0.00949 µM) 63% | viability, T/C (second compound 9.49 µM, first compound 0.03 µM) 30.6% | viability, T/C (second compound 30 µM, first compound 0.00949 µM) 16.7%
7.11: pIC50 [2]

COC1CC2CCC(C)C(O)(O2)C(=O)C(=O)N2CCCCC2C(=O)OC(C(C)CC2CCC(OCCO)C(OC)C2)CC(=O)C(C)C=C(C)C(O)C(OC)C(=O)C(C)CC(C)C=CC=CC=C1C (configuration not stated)
inactive: viability, T/C (compound 0.000316 µM) 108% and 104% | viability, T/C (compound 0.001 µM) 102% | viability, T/C (compound 0.00316 µM) 96.4% and 93.1% | viability, T/C (compound 0.01 µM) 79.5% and 86.7% | viability, T/C (compound 0.0316 µM) 64.5% and 67.5% | viability, T/C (compound 0.1 µM) 51.6% and 53.8%
< 7.00: pIC50 (curve of compound)

CC(C)CC(NC(=O)CNC(=O)c1cc(Cl)ccc1Cl)B1OC(=O)CC(CC(=O)O)(C(=O)O)O1 (configuration not stated) + CC(C)NCC(C(=O)N1CCN(c2ncnc3c2C(C)CC3O)CC1)c1ccc(Cl)cc1
8.32: pIC50 [4]
> 9.50: pIC50 [5]
8.11: pIC50 [2]
active: viability, T/C (second compound 0.3 µM, first compound 0.0316 µM) 2.27% | viability, T/C (second compound 0.3 µM, first compound 0.1 µM) 0.15% | viability, T/C (second compound 0.949 µM, first compound 0.0316 µM) 1.94% | viability, T/C (second compound 0.949 µM, first compound 0.1 µM) 0.09% | viability, T/C (second compound 3 µM, first compound 0.0316 µM) 1.1% | viability, T/C (second compound 3 µM, first compound 0.1 µM) 0.08% | viability, T/C (second compound 9.49 µM, first compound 0.0316 µM) 0.49% | viability, T/C (second compound 9.49 µM, first compound 0.1 µM) 0.09% | viability, T/C (second compound 30 µM, first compound 0.01 µM) 3.46% | viability, T/C (second compound 30 µM, first compound 0.0316 µM) 0.13% | viability, T/C (second compound 30 µM, first compound 0.1 µM) 0.12%
8.25: pIC50 [3]
inactive: viability, T/C (second compound 0.3 µM, first compound 0.000316 µM) 97.4% | viability, T/C (second compound 0.3 µM, first compound 0.001 µM) 100% | viability, T/C (second compound 0.3 µM, first compound 0.00316 µM) 102% | viability, T/C (second compound 0.3 µM, first compound 0.01 µM) 38.1% | viability, T/C (second compound 0.949 µM, first compound 0.000316 µM) 98.6% | viability, T/C (second compound 0.949 µM, first compound 0.001 µM) 101% | viability, T/C (second compound 0.949 µM, first compound 0.00316 µM) 93% | viability, T/C (second compound 0.949 µM, first compound 0.01 µM) 38% | viability, T/C (second compound 3 µM, first compound 0.000316 µM) 85.3% | viability, T/C (second compound 3 µM, first compound 0.001 µM) 94.1% | viability, T/C (second compound 3 µM, first compound 0.00316 µM) 82.7% | viability, T/C (second compound 3 µM, first compound 0.01 µM) 16.9% | viability, T/C (second compound 9.49 µM, first compound 0.000316 µM) 71% | viability, T/C (second compound 9.49 µM, first compound 0.001 µM) 68.7% | viability, T/C (second compound 9.49 µM, first compound 0.00316 µM) 65.1% | viability, T/C (second compound 9.49 µM, first compound 0.01 µM) 23.2% | viability, T/C (second compound 30 µM, first compound 0.000316 µM) 21.9% | viability, T/C (second compound 30 µM, first compound 0.001 µM) 22.4% | viability, T/C (second compound 30 µM, first compound 0.00316 µM) 23.8%
8.10: pIC50 [1]
